Measurements as given in the supplement of paper PMC12592484.

Columns and labels:
Assay in all cases: drug sensitivity score (DSS2, normalised partial AUC of dose-response, 72 h CellTiter-Glo viability) (DSS (dimensionless)); higher = more sensitive (stronger growth inhibition / cytotoxicity); extreme values may be limits of the assay
22Rv1 = test system: 22Rv1
Method in brief: (§1)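 The drug sensitivity score reported here is a partial area under the fitted logistic dose–response curve, divided by the log of the curve's upper asymptote and computed in BREEZE; higher values denote greater sensitivity. Low-passage primary prostate cancer-associated fibroblasts, PF179T, WPMY-1, LNCaP and 22Rv1 cells were seeded into 384-well plates preloaded with compounds at five doses across a 10,000-fold range. CellTiter-Glo 2.0 luminescence gave viability at 72 h, scaled to vehicle and positive-control wells.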

CAF#1 = test system: CAF#1 (primary prostate cancer-associated fibroblasts of myCAF-like type)
Method in brief: as §1

CAF#2 = test system: CAF#2 (primary prostate cancer-associated fibroblasts of iCAF-like type)
Method in brief: as §1

CAF#3 = test system: CAF#3 (primary prostate cancer-associated fibroblasts of myCAF-like type)
Method in brief: as §1

CAF#4 = test system: CAF#4 (primary prostate cancer-associated fibroblasts of iCAF-like type)
Method in brief: as §1

CAF#5 = test system: CAF#5 (primary prostate cancer-associated fibroblasts of myCAF-like type)
Method in brief: as §1

CAF#6 = test system: CAF#6 (primary prostate cancer-associated fibroblasts of iCAF-like type)
Method in brief: as §1

CAF#7 = test system: CAF#7 (primary prostate cancer-associated fibroblasts of myCAF-like type)
Method in brief: as §1

LNCAP = test system: LNCAP
Method in brief: as §1

PF179T = test system: PF179T
Method in brief: as §1

WPMY-1 = test system: WPMY-1
Method in brief: as §1

Row | Structure (SMILES) | drug sensitivity score (22Rv1) | drug sensitivity score (CAF#1) | drug sensitivity score (CAF#2) | drug sensitivity score (CAF#3) | drug sensitivity score (CAF#4) | drug sensitivity score (CAF#5) | drug sensitivity score (CAF#6) | drug sensitivity score (CAF#7) | drug sensitivity score (LNCAP) | drug sensitivity score (PF179T) | drug sensitivity score (WPMY-1)
1 | Cc1nc(C(=O)NCC(=O)O)c(O)c2ccc(Oc3ccccc3)cc12 [Roxadustat] (tested concentration range 1-10000 nM) | 0 | 0 | 0 | 0 | 0 | 0.2 | 0 | 0 | 0 | 0 | 0
2 | CN(C)C[C@@H]1CCn2cc(c3ccccc32)C2=C(C(=O)NC2=O)c2cn(c3ccccc23)CCO1 [Ruboxistaurin] (tested concentration range 1-10000 nM) | 9.6 | 8.4 | 6.6 | 8.9 | 8.4 | 6.8 | 6.8 | 5.9 | 8.2 | 8.4 | 8.4
3 | CNCc1ccc(-c2[nH]c3cc(F)cc4c3c2CCNC4=O)cc1 [Rucaparib] (tested concentration range 1-10000 nM) | 4.6 | 0.8 | 2.3 | 0 | 3.8 | 0 | 0.5 | 2.9 | 4.8 | 3.7 | 1.8
4 | N#CC[C@H](C1CCCC1)n1cc(-c2ncnc3[nH]ccc23)cn1 [Ruxolitinib] (tested concentration range 1-10000 nM) | 0 | 0 | 0.8 | 0 | 0 | 1.3 | 0 | 0 | 1.5 | 0 | 0.6
5 | CC(C)N(CCCNC(=O)Nc1ccc(C(C)(C)C)cc1)C[C@H]1O[C@@H](n2cc(Br)c3c(N)ncnc32)[C@H](O)[C@@H]1O [SGC0946] (tested concentration range 1-10000 nM) | 1.6 | 0.2 | 0 | 0.5 | 0.8 | 0 | 0.1 | 1.2 | 2.1 | 0 | 2.2
6 | COc1ccc(CCc2nc3cc(-c4c(C)noc4C)ccc3n2C[C@H](C)N2CCOCC2)cc1Cl [SGC-CBP30] (tested concentration range 2.5-25000 nM) | 6.2 | 1.6 | 1.5 | 5.4 | 1.3 | 0.8 | 2.2 | 1.2 | 8.5 | 0.1 | 7.4
7 | CN(CC(=O)N(Cc1ccc(C2CCCCC2)cc1)c1ccc(C(=O)O)cc1)S(=O)(=O)c1c(F)c(F)c(F)c(F)c1F [SH-4-54] (tested concentration range 2.5-25000 nM) | 8.4 | 6.3 | 6.3 | 5.4 | 5.6 | 6 | 7.2 | 4.6 | 6 | 5.5 | 6.5
8 | CCc1c2c(nc3ccc(O)cc13)-c1cc3c(c(=O)n1C2)COC(=O)[C@]3(O)CC [SN-38] (tested concentration range 1-10000 nM) | 39.3 | 20.3 | 25.5 | 7.1 | 20.3 | 14.3 | 8.7 | 11.8 | 34.8 | 19.7 | 35
9 | CC[C@@H](C(=O)[C@@H](C)[C@@H](O)[C@H](C)[C@@H]1O[C@@H]([C@@H](CC)C(=O)O)CC[C@@H]1C)[C@H]1O[C@]2(C=C[C@@H](O)[C@]3(CC[C@@](C)([C@H]4CC[C@](O)(CC)[C@H](C)O4)O3)O2)[C@H](C)C[C@@H]1C [Salinomycin] (tested concentration range 5-50000 nM) | 26.4 | 26.8 | 26.5 | 9.4 | 25.2 | 23.6 | 21.2 | 18.5 | 29.1 | 19.1 | 28.8
10 | CC(C)n1nc(-c2ccc3oc(N)nc3c2)c2c(N)ncnc21 [Sapanisertib] (tested concentration range 0.1-1000 nM) | 21.2 | 20.2 | 14 | 14.3 | 17.8 | 19.1 | 14.6 | 13.2 | 20 | 18 | 13.7
11 | CN1CCN(CCOc2cc(OC3CCOCC3)c3c(Nc4c(Cl)ccc5c4OCO5)ncnc3c2)CC1 [Saracatinib] (tested concentration range 1-10000 nM) | 4.3 | 7.7 | 7.7 | 10.1 | 6.7 | 8.2 | 6.6 | 5.8 | 6.4 | 5.5 | 5.4
12 | CC[C@H](CO)Nc1nc(NCc2ccccc2)c2ncn(C(C)C)c2n1 [Seliciclib] (tested concentration range 1-10000 nM) | 0.2 | 1.7 | 1.1 | 1.4 | 1.4 | 2 | 1.1 | 2.3 | 4.3 | 0 | 0.6
